The values that follow come from US7605156B2, “Methods for the use of inhibitors of cytosolic phospholipase A2” (Wyeth, priority 2001, dated 2009).

The assay addresses T1, cPLA2 (Homo sapiens, UniProt P47712).
T1 sequence (P47712 1-749): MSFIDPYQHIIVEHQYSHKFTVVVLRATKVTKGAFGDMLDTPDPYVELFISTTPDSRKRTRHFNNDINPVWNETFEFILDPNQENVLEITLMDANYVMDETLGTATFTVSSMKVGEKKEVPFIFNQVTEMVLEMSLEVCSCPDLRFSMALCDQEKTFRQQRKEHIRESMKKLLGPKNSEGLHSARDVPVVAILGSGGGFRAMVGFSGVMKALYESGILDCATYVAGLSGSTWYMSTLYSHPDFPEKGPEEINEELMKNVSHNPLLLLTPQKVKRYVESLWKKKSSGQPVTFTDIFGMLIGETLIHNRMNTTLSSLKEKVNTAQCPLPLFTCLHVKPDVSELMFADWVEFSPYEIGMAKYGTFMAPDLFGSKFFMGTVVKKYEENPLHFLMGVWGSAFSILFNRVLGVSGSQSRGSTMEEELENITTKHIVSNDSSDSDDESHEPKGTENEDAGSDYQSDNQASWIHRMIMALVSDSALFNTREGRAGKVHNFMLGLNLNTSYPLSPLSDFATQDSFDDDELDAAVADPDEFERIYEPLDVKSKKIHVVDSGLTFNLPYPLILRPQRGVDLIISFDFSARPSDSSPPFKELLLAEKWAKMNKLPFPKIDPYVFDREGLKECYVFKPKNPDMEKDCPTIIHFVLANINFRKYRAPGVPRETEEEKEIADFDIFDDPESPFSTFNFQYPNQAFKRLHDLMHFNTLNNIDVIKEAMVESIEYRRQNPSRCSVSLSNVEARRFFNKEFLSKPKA
Description: Coumarine assay (hydrolysis of 7-hydroxycoumarinyl 6-heptenoate). To be noted: 60 μM 7-hydroxycoumarinyl 6-heptenoate, pH 7.5; read-out: Coumarin IC50. In kind it is biochemical.

In the case of `O=C(O)c1ccc(OCCc2c(CCNS(=O)(=O)Cc3cc(F)cc(F)c3)n(C(c3ccccc3)c3ccccc3)c3ccc(Cl)cc23)cc1` [Example 35, 4-{2-[1-benzhydryl-5-chloro-2-(2-{[(3,5-difluorobenzyl)-sulfonyl]amino}ethyl)-1H-indol-3-yl]ethoxy}benzoic acid], the concentration for half-maximal inhibition (IC50) amounted to 330 nM.

As to `O=C(O)c1ccc(CCCc2c(CCNS(=O)(=O)c3ccccc3F)n(C(c3ccccc3)c3ccccc3)c3ccc(Cl)cc23)cc1` [Example 222, 4-{3-[1-Benzhydryl-5-chloro-2-(2-{[(2-fluorophenyl)sulfonyl]amino}ethyl)-1H-indol-3-yl)propyl]benzoic acid], the IC50 was determined as 190 nM.

For `O=C(O)c1ccc(OCCc2c(CCNS(=O)(=O)c3c(F)cc(F)cc3F)n(C(c3ccccc3)c3ccccc3)c3ccc(Cl)cc23)cc1` [Example 196, 4-(2-{1-Benzhydryl-5-chloro-2-[2-(2,4,6-trifluoro-benzenesulfonylamino)-ethyl]-1H-indol-3-yl}-ethoxy)-benzoic acid], the IC50 came out at 560 nM.

In the case of `Cc1ccccc1S(=O)(=O)NCCc1c(CCCc2ccc(C(=O)O)cc2)c2cc(Cl)ccc2n1C(c1ccccc1)c1ccccc1` [Example 232], the IC50 turned out to be 130 nM.

As to `O=C(O)c1ccc(S(=O)(=O)CCc2c(CCNS(=O)(=O)c3ccccc3Cl)n(C(c3ccccc3)c3ccccc3)c3ccc(Cl)cc23)cc1` [Example 256, 4-({2-[1-benzhydryl-5-chloro-2-(2-{[(2-chlorophenyl)sulfonyl]amino}ethyl)-1H-indol-3-yl]ethyl}sulfonyl)benzoic acid], the 50% inhibitory concentration (IC50) is 600 nM.

As to `NC(=O)C1CCCN1CCS(=O)(=O)NCCc1c(CCOc2ccc(C(=O)O)cc2)c2cc(Cl)ccc2n1C(c1ccccc1)c1ccccc1` (stereo not shown) [Example 247, 4-[2-(1-Benzhydryl-2-{2-[2-(2-carbamoyl-pyrrolidin-1-yl)-ethanesulfonylamino]-ethyl}-5-chloro-1H-indol-3-yl)-ethoxy]-benzoic acid], the IC50 came to 1200 nM.

On to `O=C(O)c1ccc(OCCc2c(CCNS(=O)(=O)CCN3C[C@@H]4C[C@H]3CO4)n(C(c3ccccc3)c3ccccc3)c3ccc(Cl)cc23)cc1` [Example 251], for which the IC50 was 1500 nM.

Consider `COc1ccc(S(=O)(=O)NCCc2c(CCOc3ccc(C(=O)O)cc3)c3cc(Cl)ccc3n2C(c2ccccc2)c2ccccc2)c2nonc12` [Example 175, 4-{2-[1-benzhydryl-5-chloro-2-(2-{[(7-methoxy-2,1,3-benzoxadiazol-4-yl)sulfonyl]amino}ethyl)-1H-indol-3-yl]ethoxy}benzoic acid], for which the IC50 came out at 370 nM.

`COc1cc(C)ccc1S(=O)(=O)NCCc1c(CCCc2ccc(C(=O)O)cc2)c2cc(Cl)ccc2n1C(c1ccccc1)c1ccccc1` [Example 167, 4-{3-[1-benzhydryl-5-chloro-2-(2-{[(2-methoxy-4-methylphenyl)sulfonyl]amino}ethyl)-1H-indol-3-yl]propyl}benzoic acid]: the IC50 worked out at 190 nM.

As for `CS(=O)(=O)c1ccc(S(=O)(=O)NCCc2c(CCCc3ccc(C(=O)O)cc3)c3cc(Cl)ccc3n2C(c2ccccc2)c2ccccc2)cc1` [Example 202, 4-(3-{1-Benzhydryl-5-chloro-2-{2-({[4-(methysulfonyl)phenyl]sulfonyl}amino)ethyl]-1H-indol-3-yl}propyl)benzoic acid], the 50% inhibitory concentration (IC50) was 300 nM.

For “4-[2-(1-benzhydryl-5-chloro-2-{2-[({2-[(3R,5S)-3,5-dimethylmorpholin-4-yl]ethyl}sulfonyl)amino]ethyl}-1H-indol-3-yl)ethoxy]benzoic acid [Example 250]”, the IC50 is 2100 nM.

With `O=C(O)c1ccc(OCCc2c(CCNS(=O)(=O)Cc3cccc(C(F)(F)F)c3)n(C(c3ccccc3)c3ccccc3)c3ccc(Cl)cc23)cc1` [Example 12], the half-maximal inhibitory concentration (IC50) came out at 150000 nM.

As for `O=C(O)c1ccc(OCCc2c(CCNS(=O)(=O)c3ccccc3Br)n(C(c3ccccc3)c3ccccc3)c3ccc(Cl)cc23)cc1` [Example 165, 4-{2-[1-benzhydryl-2-(2-{[(2-bromophenyl)sulfonyl]amino}ethyl)-5-chloro-1H-indol-3-yl]ethoxy}benzoic acid], the IC50 worked out at 530 nM.

Take `CCc1cccc(CC)c1S(=O)(=O)NCCc1c(CCCc2ccc(C(=O)O)cc2)c2cc(Cl)ccc2n1C(c1ccccc1)c1ccccc1` [Example 273, 4-{3-[1-benzhydryl-5-chloro-2-(2-{[(2,6-diethylphenyl)sulfonyl]amino}ethyl)-1H-indol-3-yl]propyl}benzoic acid]: the IC50 came out at 110 nM.

As to `CC(=O)N1C(C)CN(CCS(=O)(=O)NCCc2c(CCOc3ccc(C(=O)O)cc3)c3cc(Cl)ccc3n2C(c2ccccc2)c2ccccc2)CC1C` (stereo not shown) [Example 244, 4-[2-(2-{2-[2-(4-Acetyl-3,5-dimethyl-piperazin-1-yl)-ethanesulfonylamino]-ethyl}-1-benzhydryl-5-chloro-1H-indol-3-yl)-ethoxy]-benzoic acid], the IC50 came out at 1300 nM.

Turning to `Cc1ccc(S(=O)(=O)NCCc2c(CCOc3ccc(C(=O)O)cc3)c3cc(Cl)ccc3n2C(c2ccccc2)c2ccccc2)cc1Cl` [Example 260, 4-{2-[1-benzhydryl-5-chloro-2-(2-{[(3-chloro-4-methylphenyl)sulfonyl]amino}ethyl)-1H-indol-3-yl]ethoxy}benzoic acid], the concentration for half-maximal inhibition (IC50) amounted to 370 nM.

For the compound `O=C(O)c1ccc(OCCc2c(CCNS(=O)(=O)C[S+]([O-])c3ccc(Cl)c(Cl)c3)n(C(c3ccccc3)c3ccccc3)c3ccc(Cl)cc23)cc1` (stereo not shown) [Example 289, 4-[2-(1-benzhydryl-5-chloro-2-{2-[({[(3,4-dichlorophenyl)sulfinyl]methyl}sulfonyl)amino]ethyl}-1H-indol-3-yl)ethoxy]benzoic acid], the IC50 amounted to 900 nM.

Regarding `O=C(O)c1ccc(OCCc2c(CCNS(=O)(=O)c3ccccc3Cl)n(C(c3ccccc3)c3ccccc3)c3ccc(Cl)cc23)cc1F` [Example 190, 4-(2-{1-Benzhydryl-5-chloro-2-[2-(2-chloro-benzenesulfonylamino)-ethyl]-1H-indol-3-yl}-ethoxy)-2-fluoro-benzoic acid], the IC50 stood at 530 nM.

With `O=C(O)c1ccc(OCCc2c(CCNS(=O)(=O)c3cccc(C(F)(F)F)c3)n(C(c3ccccc3)c3ccccc3)c3ccc(Cl)cc23)cc1` [Example 219, 4-(2-{1-benzhydryl-5-chloro-2-[2-({[3-(trifluoromethyl)phenyl]sulfonyl}amino)ethyl]-1H-indol-3-yl}ethoxy)benzoic acid], the IC50 came out at 400 nM.

Consider `O=C(O)c1ccc(CCCc2c(CCNS(=O)(=O)c3ccccc3Br)n(C(c3ccccc3)c3ccccc3)c3ccc(Cl)cc23)cc1` [Example 158, 4-{3-[1-benzhydryl-2-(2-{[(2-bromophenyl)sulfonyl]amino}ethyl)-5-chloro-1H-indol-3-yl]propyl}benzoic acid], for which the IC50 stood at 200 nM.

As for `O=C(O)c1ccc(OCCc2c(CCNS(=O)(=O)c3ccccc3OCc3ccccc3)n(C(c3ccccc3)c3ccccc3)c3ccc(Cl)cc23)cc1` [Example 184, 4-(2-{1-Benzhydryl-2-[2-(2-benzyloxy-benzenesulfonylamino)-ethyl]-5-chloro-1H-indol-3-yl}-ethoxy)benzoic acid], the IC50 came to 350 nM.

As for `O=C(O)c1ccc(OCCc2c(CCNS(=O)(=O)CSc3ccc(F)c(Cl)c3)n(C(c3ccccc3)c3ccccc3)c3ccc(Cl)cc23)cc1` [Example 221, 4-[2-(1-benzhydryl-5-chloro-2-{2-[({[(3-chloro-4-fluorophenyl)thio]methyl}sulfonyl)amino]ethyl}-1H-indol-3-yl)ethoxy]benzoic acid], the IC50 worked out at 500 nM.

One may read the IC50 as the point on the concentration scale where inhibition reaches its midpoint.
